The series is described as follows: in vitro permeation test, Gummer permeation vertical cells. The class given is in vitro ADME, mice. The settings on record: for ciclopirox permeated: 75.0 μL of composition of Example 4 on hairless mice skin, individual experiments test 1-6. The method, then:
An in vitro permeation test was performed by applying the film forming solution according to the Example 4 to excised hairless mice skin, obtained from dorsal or abdominal skin of male hairless mice (strain MF1-hr-hr/OIa, Nossan srl, Correzzana, Milan, Italy) aged 7-10 weeks. Portions of the skin (ca 9 cm^2), after removal of adhering fat and subcutaneous tissues, were placed as a barrier between the two compartment of Gummer permeation vertical cells (Gummer, C. L. et al. The skin penetration cell: design update. Int. J. Pharm. 1987, 40, 101-104). The receiving phase was introduced into the lower compartment and 75.0 μL of the composition according to the Example 4 were regularly distributed on the exposed skin surface. At predetermined time intervals (1, 2, 3, 4 and 5 hours) 5.0 mL of the receiving solution were collected for analysis and immediately replaced by an equal volume of fresh buffer. The experiment was replicated 6 times.

Where “and” joins values, the source holds several entries; their conditions need not be identical. Identical values can stand only once.

Regarding `Cc1cc(C2CCCCC2)n(O)c(=O)c1` [ciclopirox], the “permeation through mice skin, conclusion” value is listed as “able to permeate the mice skin”. The ciclopirox permeated (h 1) is 0.001548 mg/cm^2 and 0.002964 mg/cm^2 and 0.001542 mg/cm^2 and 0.001617 mg/cm^2 and 0.00487 mg/cm^2 and 0.02038 mg/cm^2. Besides, the ciclopirox permeated (h 2) was 0.01134 mg/cm^2 and 0.05066 mg/cm^2 and 0.01241 mg/cm^2 and 0.0445 mg/cm^2 and 0.04696 mg/cm^2 and 0.1182 mg/cm^2. Also, the ciclopirox permeated (h 3) was 0.05601 mg/cm^2 and 0.102 mg/cm^2 and 0.04902 mg/cm^2 and 0.1745 mg/cm^2 and 0.2725 mg/cm^2 and 0.4084 mg/cm^2. Also, the ciclopirox permeated (h 4) is 0.1146 mg/cm^2 and 0.1226 mg/cm^2 and 0.08552 mg/cm^2 and 0.2757 mg/cm^2 and 0.5273 mg/cm^2 and 0.7623 mg/cm^2. In addition, the ciclopirox permeated (h 5) is 0.1721 mg/cm^2 and 0.1401 mg/cm^2 and 0.1517 mg/cm^2 and 0.328 mg/cm^2 and 0.7212 mg/cm^2 and 1.025 mg/cm^2.

(Values after patent publication US20100062083A1, “DERMAL FILM-FORMING LIQUID FORMULATIONS FOR DRUG RELEASE TO SKIN” (POLICHEM S.A., priority 2007, published 2010).)
